In brackets after ≈: the same amount, converted by molar mass. Where two headings read alike, the source gives them in different places.
Key:
Type in all cases: cell-based
B. pseudomallei Bp82 = test: microbe, parasite or virus in culture; conditions: Burkholderia pseudomallei, BP82, read-out: Minimum inhibitory concentration, B. pseudomallei Bp82
E. coli AG100A = test: Broth microdilution MIC in CAMHB; conditions: Escherichia coli, read-out: MIC E. coli AG100A
P. aeruginosa ATCC 27853 = test: microbe, parasite or virus in culture; conditions: Pseudomonas aeruginosa, ATCC27853, read-out: MIC P. aeruginosa ATCC 27853
E. coli ATCC 25922 = test: microbe, parasite or virus in culture; conditions: Escherichia coli, ATCC25922, read-out: MIC E. coli 25922
[1] = system: P. aeruginosa (ΔmexAB-oprM); test: Broth microdilution MIC in CAMHB
E. coli 901C = test: microbe, parasite or virus in culture; conditions: Escherichia coli, read-out: MIC E. coli 901C
K. pneumoniae 848844 = test: microbe, parasite or virus in culture; conditions: Klebsiella pneumoniae, 848844, read-out: MIC K. pneumoniae 848844
A. baumannii ATCC 19606 = test: microbe, parasite or virus in culture; conditions: Acinetobacter baumannii, ATCC19606, read-out: MIC, A. baumannii ATCC 19606
E. coli AG100 = test: microbe, parasite or virus in culture; conditions: Escherichia coli, AG100, read-out: MIC E. coli AG100
P. aeruginosa ATCC 35151 = test: microbe, parasite or virus in culture; conditions: Pseudomonas aeruginosa, ATCC35151, read-out: MIC P. aeruginosa ATCC 35151
E. coli D22 = test: microbe, parasite or virus in culture; conditions: Escherichia coli, D22, read-out: MIC E. coli D22
K. pneumoniae SI-117 = test: microbe, parasite or virus in culture; conditions: Klebsiella pneumoniae, SI117, read-out: MIC K. pneumoniae SI-117
K. pneumoniae UMM = test: microbe, parasite or virus in culture; conditions: Klebsiella pneumoniae, read-out: MIC K. pneumoniae UMM
A. baumannii CDC-0083 = test: microbe, parasite or virus in culture; conditions: Acinetobacter baumannii, CDC0083, read-out: MIC, A. baumannii CDC-0083
[2] = Pseudomonas aeruginosa; read-out: MIC P. aeruginosa ΔmexAB-oprM

Compound	MIC (B. pseudomallei Bp82) [µg/mL]	MIC (E. coli AG100A) [µg/mL]	MIC (P. aeruginosa ATCC 27853) [µg/mL]	MIC (E. coli ATCC 25922) [µg/mL]	MIC [1, 2] [µg/mL]	MIC (E. coli 901C) [µg/mL]	MIC (K. pneumoniae 848844) [µg/mL]	MIC (A. baumannii ATCC 19606) [µg/mL]	MIC (E. coli AG100) [µg/mL]	MIC (P. aeruginosa ATCC 35151) [µg/mL]	MIC (E. coli D22) [µg/mL]	MIC (K. pneumoniae SI-117) [µg/mL]	MIC (K. pneumoniae UMM) [µg/mL]	MIC (A. baumannii CDC-0083) [µg/mL]	MIC ([1]; Pseudomonas aeruginosa, read-out: MIC P. aeruginosa ΔmexAB-oprM) [µg/mL]
O=C(O)c1c(F)ccc2c1OB(O)[C@@H](NC(=O)[C@H](NC(=O)N1CCN(C3CCN(C(=O)c4cc(O)c(O)c(Cl)c4)CC3)C1=O)c1ccc(P(=O)(O)O)cc1)C2 [Example 496, (R)-3-((R)-2-(3-(1-(3-chloro-4,5-dihydroxybenzoyl)piperidin-4-yl)-2-oxoimidazolidine-1-carboxamido)-2-(4-phosphonophenyl)acetamido)-7-fluoro-2-hydroxy-3,4-dihydro-2H-benzo[e][1,2]oxaborinine-8-carboxylic acid]	< 1														
O=C(O)c1cccc2c1OB(O)[C@@H](NC(=O)[C@H](NC(=O)N1CCN(S(=O)(=O)c3ccc(O)c(O)c3Cl)C1=O)c1ccc(P(=O)(O)O)cc1)C2 [Example 509, (R)-3-((R)-2-(3-((2-chloro-3,4-dihydroxyphenyl)sulfonyl)-2-oxoimidazolidine-1-carboxamido)-2-(4-phosphonophenyl)acetamido)-2-hydroxy-3,4-dihydro-2H-benzo[e][1,2]oxaborinine-8-carboxylic acid]	< 1	< 1	< 1	< 1	< 1	< 1	< 1	< 1	< 1	< 1	< 1	< 1	< 1		
O=C(O)c1c(F)ccc2c1OB(O)[C@@H](NC(=O)C(NC(=O)N1CCN(S(=O)(=O)c3ccc(O)c(O)c3Cl)C1=O)c1ccc(P(=O)(O)O)cc1)C2 (stereo partly drawn) [Example 505, (3R)-3-(2-(3-((2-chloro-3,4-dihydroxyphenyl)sulfonyl)-2-oxoimidazolidine-1-carboxamido)-2-(4-phosphonophenyl)acetamido)-7-fluoro-2-hydroxy-3,4-dihydro-2H-benzo[e][1,2]oxaborinine-8-carboxylic acid]	< 1	< 1	< 1	< 1	< 1	< 1	< 1	< 1	< 1	< 1	< 1	< 1	< 1		
O=C(O)c1c(F)ccc2c1OB(O)[C@@H](NC(=O)[C@H](NC(=O)N1CCN(C3CCN(C(=O)c4cc(F)c(O)c(O)c4Cl)CC3)C1=O)c1ccc(P(=O)(O)O)cc1)C2 (single isomer, unassigned) [Example 495]	< 1														
O=C(NCCN1CCN(C(=O)N[C@@H](C(=O)N[C@H]2Cc3ccc(F)c(C(=O)O)c3OB2O)c2ccc(P(=O)(O)O)cc2)C(=O)C1=O)c1ccc(O)c(O)c1Cl [Example 503, (R)-3-((R)-2-(4-(2-(2-chloro-3,4-dihydroxybenzamido)ethyl)-2,3-dioxopiperazine-1-carboxamido)-2-(4-phosphonophenyl)acetamido)-7-fluoro-2-hydroxy-3,4-dihydro-2H-benzo[e][1,2]oxaborinine-8-carboxylic acid]	< 1														
O=C(O)c1c(F)ccc2c1OB(O)[C@@H](NC(=O)[C@H](NC(=O)N1CCN(C3CCN(C(=O)c4ccc(O)c(O)c4Cl)CC3)C1=O)c1ccc(P(=O)(O)O)cc1)C2 [Example 494, (R)-3-((R)-2-(3-(1-(2-chloro-3,4-dihydroxybenzoyl)piperidin-4-yl)-2-oxoimidazolidine-1-carboxamido)-2-(4-phosphonophenyl)acetamido)-7-fluoro-2-hydroxy-3,4-dihydro-2H-benzo[e][1,2]oxaborinine-8-carboxylic acid]	< 1														
O=C(O)c1c(F)ccc2c1OB(O)[C@@H](NC(=O)[C@H](NC(=O)N1CCN(Cc3ccc(O)c(O)c3Cl)C(=O)C1=O)c1cc(F)c(P(=O)(O)O)c(F)c1)C2 [Example 502, (R)-3-((R)-2-(4-(2-chloro-3,4-dihydroxybenzyl)-2,3-dioxopiperazine-1-carboxamido)-2-(3,5-difluoro-4-phosphonophenyl)acetamido)-7-fluoro-2-hydroxy-3,4-dihydro-2H-benzo[e][1,2]oxaborinine-8-carboxylic acid]	< 1														
O=C(O)c1c(F)ccc2c1OB(O)[C@@H](NC(=O)[C@H](NC(=O)N1CCN(C3CCN(C(=O)Nc4cc(F)c(O)c(O)c4Cl)CC3)C1=O)c1ccc(P(=O)(O)O)cc1)C2 (single isomer, unassigned) [Example 500]	< 1														
O=C(O)c1c(F)ccc2c1OB(O)[C@@H](NC(=O)[C@H](NC(=O)N1CCN(S(=O)(=O)c3ccc(O)c(O)c3Cl)C1=O)c1ccc(P(=O)(O)O)cc1)C2 [Example 506, (R)-3-((R)-2-(3-((2-chloro-3,4-dihydroxyphenyl)sulfonyl)-2-oxoimidazolidine-1-carboxamido)-2-(4-phosphonophenyl)acetamido)-7-fluoro-2-hydroxy-3,4-dihydro-2H-benzo[e][1,2]oxaborinine-8-carboxylic acid]	< 1	< 1	< 1	< 1	< 1	< 1	2 to 4 (≈ 2.64 to 5.29 µM)	< 1	< 1	< 1	< 1	< 1	< 1		
O=C(O)c1c(F)ccc2c1OB(O)[C@@H](NC(=O)[C@H](NC(=O)N1CCN(C3CCN(C(=O)Nc4ccc(O)c(O)c4Cl)CC3)C1=O)c1ccc(P(=O)(O)O)cc1)C2 (single isomer, unassigned) [Example 497]	< 1														
O=C(O)c1c(F)ccc2c1OB(O)[C@@H](NC(=O)[C@H](NC(=O)N1CCN(Cc3ccc(O)c(O)c3Cl)C(=O)C1=O)c1ccc(P(=O)(O)O)cc1)C2 (single isomer, unassigned) [Example 160]		< 1	< 1	2 to 4 (≈ 2.72 to 5.44 µM)	< 1	< 1	32 to 64 (≈ 43.6 to 87.1 µM)	< 1	< 1	< 1	2 to 4 (≈ 2.72 to 5.44 µM)	8 to 16 (≈ 10.9 to 21.8 µM)	2 to 4 (≈ 2.72 to 5.44 µM)	< 1	
O=C(O)c1cccc2c1OB(O)[C@@H](NC(=O)[C@H](NC(=O)N1CCN(Cc3cc(F)c(O)c(O)c3Cl)C(=O)C1=O)c1ccc(P(=O)(O)O)cc1)C2 [Example 504, (R)-3-((R)-2-(4-(2-chloro-5-fluoro-3,4-dihydroxybenzyl)-2,3-dioxopiperazine-1-carboxamido)-2-(4-phosphonophenyl)acetamido)-2-hydroxy-3,4-dihydro-2H-benzo[e][1,2]oxaborinine-8-carboxylic acid]		< 1	< 1	< 1		< 1	2 to 4 (≈ 2.72 to 5.44 µM)	< 1	< 1	< 1	2 to 4 (≈ 2.72 to 5.44 µM)	2 to 4 (≈ 2.72 to 5.44 µM)	2 to 4 (≈ 2.72 to 5.44 µM)		< 1

Reference: US20240270762A1, “PENICILLIN-BINDING PROTEIN INHIBITORS” (priority 2021, published 2024)
